How the values were obtained:
[1] = target: T1, HDAC1 enzyme (Homo sapiens, UniProt Q13547); test: HDAC1 enzyme inhibitory assay (HDAC-Glo I/II Assay kit); type: biochemical; conditions: 1 μM test compound; for inhibition at 1 µM: read-out: HDAC1 inhibitory rate (%) (1 μM)
T1 construct: prepared by transducing full length HDAC1 and HDAC6 genes into Sf-9 insect cells; GST; purchased SignalChem; host or cells: Sf-9 insect cells
How it was run: (§1)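 Sf-9-expressed GST-purified full-length HDAC1/HDAC6; cpd + enzyme 60 min RT, 24 mM Tris-HCl pH 7.5, 135 mM NaCl, 0.6 mM glutathione, 0.01% Tween-20; substrate-developer 20 min RT; luminescence; no-enzyme wells = 100% inhibition.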

[2] = target: T2, HDAC6 enzyme (Homo sapiens, UniProt Q9UBN7); test: HDAC6 enzyme inhibitory assay (HDAC-Glo I/II Assay kit); type: biochemical; conditions: 1 μM test compound; for inhibition at 1 µM: read-out: HDAC6 inhibitory rate (%) (1 μM)
T2 construct: prepared by transducing full length HDAC1 and HDAC6 genes into Sf-9 insect cells; GST; purchased SignalChem; host or cells: Sf-9 insect cells
T2 sequence (Q9UBN7 1-1215): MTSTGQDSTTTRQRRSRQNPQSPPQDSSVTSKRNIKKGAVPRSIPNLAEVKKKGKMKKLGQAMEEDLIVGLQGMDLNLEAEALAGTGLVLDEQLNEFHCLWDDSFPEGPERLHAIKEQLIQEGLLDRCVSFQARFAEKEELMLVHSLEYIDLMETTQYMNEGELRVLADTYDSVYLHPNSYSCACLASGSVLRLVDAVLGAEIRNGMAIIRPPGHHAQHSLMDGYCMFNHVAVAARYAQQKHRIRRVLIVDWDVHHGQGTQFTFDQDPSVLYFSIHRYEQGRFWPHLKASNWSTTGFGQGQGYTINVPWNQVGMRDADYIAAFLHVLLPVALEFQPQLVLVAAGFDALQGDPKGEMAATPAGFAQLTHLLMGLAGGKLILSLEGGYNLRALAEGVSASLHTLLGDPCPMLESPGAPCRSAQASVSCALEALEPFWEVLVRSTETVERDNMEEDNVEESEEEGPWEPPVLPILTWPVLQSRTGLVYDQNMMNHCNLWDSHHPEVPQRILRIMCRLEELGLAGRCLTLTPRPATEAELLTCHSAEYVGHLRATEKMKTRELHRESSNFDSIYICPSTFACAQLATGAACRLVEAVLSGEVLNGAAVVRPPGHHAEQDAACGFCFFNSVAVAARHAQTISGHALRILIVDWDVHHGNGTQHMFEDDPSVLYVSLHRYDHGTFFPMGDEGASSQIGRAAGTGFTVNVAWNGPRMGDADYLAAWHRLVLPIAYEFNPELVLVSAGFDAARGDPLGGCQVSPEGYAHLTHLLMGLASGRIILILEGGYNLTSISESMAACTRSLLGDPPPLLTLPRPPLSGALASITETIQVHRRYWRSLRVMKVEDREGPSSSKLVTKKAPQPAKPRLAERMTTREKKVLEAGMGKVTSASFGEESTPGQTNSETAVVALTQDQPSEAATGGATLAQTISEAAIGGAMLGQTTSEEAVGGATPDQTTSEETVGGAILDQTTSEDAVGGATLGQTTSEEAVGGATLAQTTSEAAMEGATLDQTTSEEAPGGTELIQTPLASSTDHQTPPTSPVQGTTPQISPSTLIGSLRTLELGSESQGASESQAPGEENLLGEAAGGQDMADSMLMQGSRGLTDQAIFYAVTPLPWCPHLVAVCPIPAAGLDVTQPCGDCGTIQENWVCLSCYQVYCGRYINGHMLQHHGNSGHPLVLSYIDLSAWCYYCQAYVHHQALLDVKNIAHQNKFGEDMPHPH
How it was run: as §1

T1 sequence (Q13547 whole entry): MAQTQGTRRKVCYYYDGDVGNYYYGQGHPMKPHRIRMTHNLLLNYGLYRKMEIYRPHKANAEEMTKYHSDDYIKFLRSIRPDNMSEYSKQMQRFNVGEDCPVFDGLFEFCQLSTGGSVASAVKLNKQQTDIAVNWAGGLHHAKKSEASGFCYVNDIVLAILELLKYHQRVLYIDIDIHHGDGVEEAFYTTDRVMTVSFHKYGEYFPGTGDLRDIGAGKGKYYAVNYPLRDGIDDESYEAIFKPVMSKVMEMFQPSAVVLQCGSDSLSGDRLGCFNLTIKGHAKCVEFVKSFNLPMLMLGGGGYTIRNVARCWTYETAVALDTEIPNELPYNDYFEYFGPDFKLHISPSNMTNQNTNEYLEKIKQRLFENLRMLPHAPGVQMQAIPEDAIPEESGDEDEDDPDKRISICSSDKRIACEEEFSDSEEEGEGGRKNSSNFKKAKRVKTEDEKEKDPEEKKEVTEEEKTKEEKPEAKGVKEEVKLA

| inhibition at 1 µM [1] | inhibition at 1 µM [2] | HDAC1 inhibitory rate (%) (1 μM) [1] | HDAC6 inhibitory rate (%) (1 μM) ([2]; 1 µM) | HDAC6 inhibitory rate (%) (1 μM) [2] | SMILES |
| --- | --- | --- | --- | --- | --- |
| 2% | 95% | – | – | – | O=C(NC[C@H]1COCCN1C(=O)N1CCC[C@@H]1C(F)(F)F)c1ccc(-c2noc(C(F)(F)F)n2)cc1 [Example 286, 4-(5-(trifluoromethyl)-1,2,4-oxadiazol-3-yl)-N-(((3S)-4-(((2R)-2-(trifluoromethyl)pyrrolidin-1-yl)carbonyl)morpholin-3-yl)methyl)benzamide] |
| 2% | 91% | – | – | – | O=C(NC[C@H]1COCCN1C(=O)N1CCC[C@H]1C(F)(F)F)c1ccc(-c2noc(C(F)(F)F)n2)cc1 [Example 287, 4-(5-(trifluoromethyl)-1,2,4-oxadiazol-3-yl)-N-(((3S)-4-(((2S)-2-(trifluoromethyl)pyrrolidin-1-yl)carbonyl)morpholin-3-yl)methyl)benzamide] |
| 3% | 102% | – | – | – | C[C@H]1CCCN1C(=O)N1CCOC[C@@H]1CNC(=O)c1ccc(-c2noc(C(F)(F)F)n2)cc1 [Example 288, N-(((3S)-4-(((2S)-2-methylpyrrolidin-1-yl)carbonyl)morpholin-3-yl)methyl)-4-(5-(trifluoromethyl)-1,2,4-oxadiazol-3-yl)benzamide] |
| 4% | 85% | – | – | – | C[C@@H]1CCCN1C(=O)N1CCOC[C@@H]1CNC(=O)c1ccc(-c2noc(C(F)(F)F)n2)cc1 [Example 289, N-(((3S)-4-(((2R)-2-methylpyrrolidin-1-yl)carbonyl)morpholin-3-yl)methyl)-4-(5-(trifluoromethyl)-1,2,4-oxadiazol-3-yl)benzamide] |
| 3% | 97% | – | – | – | O=C(NC[C@H]1COCCN1C(=O)N1CCCOCC1)c1ccc(-c2noc(C(F)(F)F)n2)cc1 [Example 290, N-(((3S)-4-(1,4-oxazepan-4-ylcarbonyl)morpholin-3-yl)methyl)-4-(5-(trifluoromethyl)-1,2,4-oxadiazol-3-yl)benzamide] |
| 1% | 90% | – | – | – | O=C(NC[C@H]1COCCN1C(=O)N1CCCOC(CO)C1)c1ccc(-c2noc(C(F)(F)F)n2)cc1 (stereo partly drawn) [Example 291, N-(((3S)-4-((2-(hydroxymethyl)-1,4-oxazepan-4-yl)carbonyl)morpholin-3-yl)methyl)-4-(5-(trifluoromethyl)-1,2,4-oxadiazol-3-yl)benzamide] |
| 2% | 76% | – | – | – | O=C(NC[C@H]1COCCN1C(=O)N1CCCC1c1cccnc1)c1ccc(-c2noc(C(F)(F)F)n2)cc1 (stereo partly drawn) [Example 292, N-(((3S)-4-((2-(pyridin-3-yl)pyrrolidin-1-yl)carbonyl)morpholin-3-yl)methyl)-4-(5-(trifluoromethyl)-1,2,4-oxadiazol-3-yl)benzamide] |
| 14% | 90% | – | – | – | O=C(NC[C@H]1COCCN1C(=O)N1CCC(c2ccccc2)C1)c1ccc(-c2noc(C(F)(F)F)n2)cc1 (stereo partly drawn) [Example 293, N-(((3S)-4-((3-phenylpyrrolidin-1-yl)carbonyl)morpholin-3-yl)methyl)-4-(5-(trifluoromethyl)-1,2,4-oxadiazol-3-yl)benzamide] |
| 5% | 82% | – | – | – | O=C(NC[C@H]1COCCN1C(=O)N1CCC(c2cccnc2)C1)c1ccc(-c2noc(C(F)(F)F)n2)cc1 (stereo partly drawn) [Example 294, N-(((3S)-4-((3-(pyridin-3-yl)pyrrolidin-1-yl)carbonyl)morpholin-3-yl)methyl)-4-(5-(trifluoromethyl)-1,2,4-oxadiazol-3-yl)benzamide] |
| 8% | 85% | – | – | – | O=C(NC[C@H]1COCCN1C(=O)N1CCC(c2ccncc2)C1)c1ccc(-c2noc(C(F)(F)F)n2)cc1 (stereo partly drawn) [Example 295, N-(((3S)-4-((3-(pyridin-4-yl)pyrrolidin-1-yl)carbonyl)morpholin-3-yl)methyl)-4-(5-(trifluoromethyl)-1,2,4-oxadiazol-3-yl)benzamide] |
| 32% | 100% | – | – | – | O=C(NC[C@H]1COCCN1C(=O)c1ccnn1CCO)c1ccc(-c2noc(C(F)(F)F)n2)cc1 [Example 296, N-(((3S)-4-((1-(2-hydroxyethyl)-1H-pyrazol-5-yl)carbonyl)morpholin-3-yl)methyl)-4-(5-(trifluoromethyl)-1,2,4-oxadiazol-3-yl)benzamide] |
| 5% | 93% | – | – | – | Cn1nccc1CC(=O)N1CCOC[C@@H]1CNC(=O)c1ccc(-c2noc(C(F)(F)F)n2)cc1 [Example 297, N-(((3S)-4-((1-methyl-1H-pyrazol-5-yl)acetyl)morpholin-3-yl)methyl)-4-(5-(trifluoromethyl)-1,2,4-oxadiazol-3-yl)benzamide] |
| 3% | 88% | – | – | – | O=C(NC[C@H]1COCCN1C(=O)N1CCC(CO)C1)c1ccc(-c2noc(C(F)(F)F)n2)cc1 (stereo partly drawn) [Example 298, N-(((3S)-4-((3-(hydroxymethyl)pyrrolidin-1-yl)carbonyl)morpholin-3-yl)methyl)-4-(5-(trifluoromethyl)-1,2,4-oxadiazol-3-yl)benzamide] |
| – | – | 4% | 94% | – | O=C(NC[C@H]1COCCN1C(=O)N1CCC(CO)C1)c1ccc(-c2noc(C(F)(F)F)n2)cc1 (stereo partly drawn) [Example 299, N-(((3S)-4-((3-(hydroxymethyl)pyrrolidin-1-yl)carbonyl)morpholin-3-yl)methyl)-4-(5-(trifluoromethyl)-1,2,4-oxadiazol-3-yl)benzamide] |
| 4% | 90% | – | – | – | O=C(NC[C@H]1COCCN1C(=O)N1CCC(CCO)C1)c1ccc(-c2noc(C(F)(F)F)n2)cc1 (stereo partly drawn) [Example 300, N-(((3S)-4-((3-(2-hydroxyethyl)pyrrolidin-1-yl)carbonyl)morpholin-3-yl)methyl)-4-(5-(trifluoromethyl)-1,2,4-oxadiazol-3-yl)benzamide] |
| – | – | 3% | 92% | – | O=C(NC[C@H]1COCCN1C(=O)N1CCC(CCO)C1)c1ccc(-c2noc(C(F)(F)F)n2)cc1 (stereo partly drawn) [Example 301, N-(((3S)-4-((3-(2-hydroxyethyl)pyrrolidin-1-yl)carbonyl)morpholin-3-yl)methyl)-4-(5-(trifluoromethyl)-1,2,4-oxadiazol-3-yl)benzamide] |
| 10% | 98% | – | – | – | O=C(NC[C@H]1COCCN1C(=O)c1cccc(OCCO)c1)c1ccc(-c2noc(C(F)(F)F)n2)cc1 [Example 302, N-(((3S)-4-(3-(2-hydroxyethoxy)benzoyl)morpholin-3-yl)methyl)-4-(5-(trifluoromethyl)-1,2,4-oxadiazol-3-yl)benzamide] |
| 8% | 99% | – | – | – | O=C(NC[C@H]1COCCN1C(=O)N1CCCCC1CO)c1ccc(-c2noc(C(F)(F)F)n2)cc1 (stereo partly drawn) [Example 303, N-(((3S)-4-((2-(hydroxymethyl)piperidin-1-yl)carbonyl)morpholin-3-yl)methyl)-4-(5-(trifluoromethyl)-1,2,4-oxadiazol-3-yl)benzamide] |
| – | – | 9% | – | 99% | O=C(NC[C@H]1COCCN1C(=O)N1CCCCC1CO)c1ccc(-c2noc(C(F)(F)F)n2)cc1 (stereo partly drawn) [Example 304, N-(((3S)-4-((2-(hydroxymethyl)piperidin-1-yl)carbonyl)morpholin-3-yl)methyl)-4-(5-(trifluoromethyl)-1,2,4-oxadiazol-3-yl)benzamide] |
